Drawing on the Kinase Knowledgebase extract (Sharma et al. 2016), this text covers IC50 for 72 molecules.

A value given as a limit tells only on which side of the number the result lay.

The target of the assay is MAPK14 (human) (UniProt Q16539). The assay can be described thus: Inhibition of MAPK14 Kinase Activity.
Chain of MAPK14 (human) (Q16539 whole entry, looked up): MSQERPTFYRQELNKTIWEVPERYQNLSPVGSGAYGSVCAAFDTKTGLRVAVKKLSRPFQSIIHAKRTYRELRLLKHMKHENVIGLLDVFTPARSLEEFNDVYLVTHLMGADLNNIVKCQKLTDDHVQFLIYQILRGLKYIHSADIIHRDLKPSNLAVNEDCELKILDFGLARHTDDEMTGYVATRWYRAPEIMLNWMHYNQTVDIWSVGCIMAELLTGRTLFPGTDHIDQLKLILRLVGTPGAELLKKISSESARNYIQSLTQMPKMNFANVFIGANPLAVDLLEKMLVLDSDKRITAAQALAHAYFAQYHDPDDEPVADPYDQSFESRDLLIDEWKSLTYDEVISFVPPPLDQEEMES
Consider `Cc1ccccc1OC1CCC(=O)N(c2c(Cl)cncc2Cl)C1` (configuration not stated), for which the IC50 is ≤ 10 µM.
On to `O=C1OCC(Cc2ccccc2)CN1c1c(Cl)cccc1Cl` (configuration not stated), for which the IC50 was ≤ 10 µM.
`O=C1CCC(Cc2ccc(F)cc2F)CN1c1c(Cl)cc(O)nc1Cl` (configuration not stated): the IC50 was ≤ 10 µM.
Under `O=C1CCC(Oc2ccc(F)cc2)CN1c1c(Cl)cccc1Cl` (configuration not stated) stands ≤ 10 µM.
For `O=C1CCC(Oc2ccc(Cl)cc2Cl)CN1c1c(Cl)ccnc1Cl` (configuration not stated) the value was ≤ 10 µM.
Under `O=C1CCC(Oc2cccc3ccccc23)CN1c1c(Cl)cncc1Cl` (configuration not stated) stands ≤ 10 µM; under `O=C1CCC(Cc2ccc(Cl)cc2)CN1c1c(Cl)cncc1Cl` (configuration not stated), ≤ 10 µM; under `O=C1COC(Cc2ccc3ccccc3c2)CN1c1c(Cl)cccc1Cl` (configuration not stated), ≤ 10 µM.
Regarding `Cc1cccc(C)c1N1C[C@H](Cc2ccc(F)cc2F)C[C@H](C)C1=O`, the IC50 was ≤ 10 µM.
Under `O=C1COC(Cc2ccc(F)cc2F)CN1c1c(Cl)ccc(O)c1Cl` (configuration not stated) stands ≤ 10 µM; under `CNC1CC(Cl)C(N2CC(Sc3ccc(F)cc3F)CCC2=O)C(Cl)C1` (configuration not stated), ≤ 10 µM.
Consider `Cc1ccc(SC2CCC(=O)N(c3c(Cl)cccc3Cl)C2)c(C)c1` (configuration not stated), for which the IC50 is ≤ 10 µM.
For the molecule `O=C1CCC(Sc2ccccc2F)CN1C1C(Cl)CCCC1Cl` (configuration not stated), the IC50 is ≤ 10 µM.
Take `O=C(Cc1ccccc1)Nc1ccc(Cl)c(N2CC(Cc3ccc(F)cc3F)COC2=O)c1Cl` (configuration not stated): the IC50 was ≤ 10 µM.
For `Cc1ccccc1CC1CCC(=O)N(c2c(Cl)csc2Cl)C1` (configuration not stated) the value was ≤ 10 µM.
Under `CNC1CCC(Cl)C(N2CC(Cc3ccc(F)cc3F)CCC2=O)C1Cl` (configuration not stated) stands ≤ 10 µM; under `CC(=O)Nc1cc(Cl)c(N2CC(Cc3ccc(F)cc3F)CCC2=O)c(Cl)c1` (configuration not stated), ≤ 10 µM; under `O=C1CCC(Sc2ccccc2F)CN1c1c(Cl)cccc1Cl` (configuration not stated), ≤ 10 µM.
On to `Nc1ccc(Cl)c(N2CC(Oc3ccc(F)cc3F)CCC2=O)c1Cl` (configuration not stated), for which the IC50 is ≤ 10 µM.
Turning to `O=C1CC[C@@H](Cc2ccc(F)cc2F)CN1c1c(Cl)cccc1Cl`, the IC50 was ≤ 10 µM.
Under `O=C1OCC(Cc2ccc(F)cc2)CN1c1c(Cl)cccc1Cl` (configuration not stated) stands ≤ 10 µM; under `CC(=O)NC1CC(Cl)C(N2CC(Cc3ccc(F)cc3F)CCC2=O)C(Cl)C1` (configuration not stated), ≤ 10 µM.
Turning to `O=C1CCC(Cc2ccc(F)cc2)CN1c1c(Cl)ccnc1Cl` (configuration not stated), the IC50 was ≤ 10 µM.
As for `Nc1sc(Cl)c(N2CC(Oc3ccc(F)cc3F)CCC2=O)c1Cl` (configuration not stated), the IC50 is ≤ 10 µM.
As to `CC(=O)Nc1cc(Cl)c(N2CC(Cc3ccc(F)cc3F)OCC2=O)c(Cl)c1` (configuration not stated), the IC50 is ≤ 10 µM.
Consider `O=C1CCC(Oc2ccc(F)cc2)CN1C1C(Cl)CCCC1Cl` (configuration not stated), for which the IC50 is ≤ 10 µM.
Regarding `Cn1nc(C(C)(C)C)cc1NC(=O)NCc1ccccc1CC1CCC(=O)N(c2c(Cl)cccc2Cl)C1` (configuration not stated), the half-maximal inhibitory concentration (IC50) is ≤ 10 µM.
For `O=C1CCC(Oc2ccccc2Cl)CN1C1C(Cl)CCCC1Cl` (configuration not stated) the value was ≤ 10 µM.
Under `CN1CC(Cc2ccc(F)cc2F)CN(c2c(Cl)ccc(O)c2Cl)C1=O` (configuration not stated) stands ≤ 10 µM.
For `O=C1CCC(Oc2ccc(F)cc2F)CN1C1C(Cl)CC(CO)CC1Cl` (configuration not stated), the IC50 was ≤ 10 µM.
For the molecule `O=C1CCC(Oc2ccc(F)cc2F)CN1c1c(Cl)cc(O)cc1Cl` (configuration not stated), the IC50 was ≤ 10 µM.
For `O=C1CCC(Cc2ccc(Cl)cc2Cl)CN1c1c(Cl)cncc1Cl` (configuration not stated), the half-maximal inhibitory concentration (IC50) is ≤ 10 µM.
For `Nc1cc(Cl)c(N2CC(Sc3ccc(F)cc3F)CCC2=O)c(Cl)c1` (configuration not stated) the value was ≤ 10 µM.
As for `Cc1ccc(OC2CCC(=O)N(c3c(Cl)cccc3Cl)C2)c(C)c1` (configuration not stated), the IC50 was ≤ 10 µM.
Under `O=C(NCc1ccccc1CC1CCC(=O)N(c2c(Cl)cccc2Cl)C1)NC1CCCCC1` (configuration not stated) stands ≤ 10 µM; under `Cc1ccccc1CC1CCC(=O)N(c2c(Cl)cncc2Cl)C1` (configuration not stated), ≤ 10 µM; under `CS(=O)(=O)NCCNc1cc(Cl)c(N2CC(Cc3ccc(F)cc3F)CCC2=O)c(Cl)c1` (configuration not stated), ≤ 10 µM.
For `O=C1CCC(Sc2ccc(F)cc2F)CN1c1c(Cl)ncc(O)c1Cl` (configuration not stated) the value was ≤ 10 µM; for `CCc1ccc(CC2CCC(=O)N(c3c(Cl)cccc3Cl)C2)cc1` (configuration not stated), ≤ 10 µM; for `CNc1cc(Cl)c(N2CC(Cc3ccc(F)cc3F)CN(C)C2=O)c(Cl)c1` (configuration not stated), ≤ 10 µM.
For `O=C1CCC(Oc2ccccc2Cl)CN1c1c(Cl)cccc1Cl` (configuration not stated) the value was ≤ 10 µM; for `Cc1cccc(C)c1N1C[C@@H](NS(=O)(=O)c2ccc(F)cc2F)CCC1=O`, ≤ 10 µM.
As to `CNc1ccc(Cl)c(N2CC(Cc3ccc(F)cc3F)OCC2=O)c1Cl` (configuration not stated), the IC50 is ≤ 10 µM.
For the molecule `CC(=O)Nc1ccc(Cl)c(N2CC(Cc3ccc(F)cc3F)CN(C)C2=O)c1Cl` (configuration not stated), the IC50 was ≤ 10 µM.
Under `O=C1CCC(Cc2ccc(F)cc2F)CN1c1c(Cl)ccc(CO)c1Cl` (configuration not stated) stands ≤ 10 µM.
Turning to `COc1ccc(SC2CCC(=O)N(c3c(Cl)cncc3Cl)C2)cc1` (configuration not stated), the IC50 was ≤ 10 µM.
For `O=C1CCC(Oc2ccc(Cl)cc2Cl)CN1c1c(Cl)cccc1Cl` (configuration not stated) the value was ≤ 10 µM.
Turning to `CN1CC(Cc2ccc(Cl)cc2Cl)CN(c2c(Cl)cccc2Cl)C1=O` (configuration not stated), the IC50 is ≤ 10 µM.
For `O=C(Cc1ccccc1)Nc1cnc(Cl)c(N2CC(Cc3ccc(F)cc3F)CCC2=O)c1Cl` (configuration not stated) the value was ≤ 10 µM; for `O=C1CCC(Cc2ccc(F)cc2F)CN1c1c(Cl)cncc1Cl` (configuration not stated), ≤ 10 µM; for `CNc1cc(Cl)c(N2CC(Oc3ccc(F)cc3F)CCC2=O)c(Cl)c1` (configuration not stated), ≤ 10 µM.
Under `CN1CC(Cc2ccccc2Cl)CN(c2c(Cl)cccc2Cl)C1=O` (configuration not stated) stands ≤ 10 µM; under `Cc1ccc(CC2CCC(=O)N(c3c(Cl)ccnc3Cl)C2)c(C)c1` (configuration not stated), ≤ 10 µM.
Under `Cc1cc(C)cc(CC2CN(c3c(Cl)cccc3Cl)C(=O)CO2)c1` (configuration not stated) stands ≤ 10 µM.
For the molecule `O=C1CCC(Sc2cc(Cl)cc(Cl)c2)CN1c1c(Cl)cncc1Cl` (configuration not stated), the IC50 was ≤ 10 µM.
With `Cc1cccc(C)c1N1CC(Cc2ccccc2C(=O)O)CCC1=O` (configuration not stated), the IC50 was ≤ 10 µM.
For `O=C1NCC(Cc2ccccc2Cl)CN1c1c(Cl)cccc1Cl` (configuration not stated) the value was ≤ 10 µM; for `COc1ccc(CC2CN(c3c(Cl)cccc3Cl)C(=O)CS2)cc1` (configuration not stated), ≤ 10 µM; for `O=C1CCC(Oc2ccccc2)CN1c1c(Cl)cncc1Cl` (configuration not stated), ≤ 10 µM.
For `COc1ccc(SC2CCC(=O)N(C3C(Cl)CCCC3Cl)C2)cc1` (configuration not stated) the value was ≤ 10 µM.
`O=C1NCC(Cc2cc(Cl)cc(Cl)c2)CN1c1c(Cl)cccc1Cl` (configuration not stated): the IC50 was ≤ 10 µM.
Under `O=C1NCC(Cc2ccccc2)CN1c1c(Cl)cccc1Cl` (configuration not stated) stands ≤ 10 µM.
On to `Nc1cc(Cl)c(N2CC(Cc3ccc(F)cc3F)CNC2=O)c(Cl)c1` (configuration not stated), for which the IC50 is ≤ 10 µM.
For `CC(C)(C)OC(=O)Nc1cc(Cl)c(N2CC(Cc3ccccc3F)CCC2=O)c(Cl)c1` (configuration not stated) the value was ≤ 10 µM; for `CC(=O)Nc1ccc(Cl)c(N2CC(Cc3ccc(F)cc3F)SCC2=O)c1Cl` (configuration not stated), ≤ 10 µM; for `O=C1CCC(Oc2ccc(F)cc2F)CN1C1C(Cl)CCC(CO)C1Cl` (configuration not stated), ≤ 10 µM.
Under `Cc1cc(C)cc(SC2CCC(=O)N(c3c(Cl)ccnc3Cl)C2)c1` (configuration not stated) stands ≤ 10 µM.
For `O=C1COC(Cc2ccc(F)cc2F)CN1c1c(Cl)cccc1Cl` (configuration not stated) the value was ≤ 10 µM; for `O=C1CCC(Oc2ccc(F)cc2F)CN1c1c(Cl)csc1Cl` (configuration not stated), ≤ 10 µM.
With `Cc1cc(C)cc(CC2CN(c3c(Cl)cccc3Cl)C(=O)CS2)c1` (configuration not stated), the half-inhibitory concentration (IC50) is ≤ 10 µM.
Take `COc1ccc(OC2CCC(=O)N(c3c(Cl)cncc3Cl)C2)cc1` (configuration not stated): the IC50 is ≤ 10 µM.
For the molecule `CC(=O)NC1CCC(Cl)C(N2CC(Oc3ccc(F)cc3F)CCC2=O)C1Cl` (configuration not stated), the IC50 was ≤ 10 µM.

In general, IC50 refers to the concentration that inhibits the measured activity by half.
